Assay results as given in patent US11219625B2, “Inhibitors of N-linked glycosylation and methods using same” (YALE UNIVERSITY, priority 2015, dated 2022).

Experiments:
Format in all cases: cell-based
[1] = test system: HEK293 cells; experiment: Celltiter Glo viability assay, HEK293; details: HEK293 EC50 over NLG AC40
Description: (§1) The HTS approach using the bioluminescent N-linked glycosylation reporter (CCR 2011) in D54-ERLucT and D54-LucT cells has been previously described (Bennett, et al., Transl Oncol 2013, 6, 382-391). Briefly, the primary cell-based screen detects site occupancy of NLG sequons using a modified luciferase protein translated into the ER. […] The methodology for the primary (D54-ERlucT), secondary (D54-LucT), and tertiary (luciferase inhibition) screens as well and toxicity assays with CelltitreGlo are deposited in Pubchem (AID 588693).
(§2) To better understand the connection between structure and activity, analogs were prepared and tested in the D54-ERLucT cell based assay for inhibition of N-linked glycosylation (FIG. 1B). The assay was used to estimate and compare AC40 values among analogs and to guide the design of improved compounds that inhibited N-linked glycosylation. This effort generated 36 unique compounds with modifications to the amine component of the sulfonamide functionality (red), the pyrrolidine moiety (blue) or the methylaminothiazole group (green). Generally, incorporation of larger sulfonamides (i.e., larger secondary amines appended to the sulphone) was not well tolerated, resulting in erosion of potency (7 analogs). However, steric interactions could be mitigated by the introduction of a hydrogen bond accepting oxygen in a larger cyclic amine. Thus, morpholine was determined to be an acceptable surrogate for the dimethylamine component of the sulfonamide (FIGS. 1A-1D). The pyrrolidine group (blue) was replaced with various alkyl, cycloalkyl, and amine groups (7 compounds). The aminothiazole moiety was derivatized most extensively of all three regions (green highlighted area, 22 analogs). […] Analogs with the highest potency in the luciferase assay were retested with western blot analysis to insure that measurements of luciferase activation corresponded to loss of N-linked glycosylation.

[2] = Celltiter Glo viability assay, HEK293; details: human, HEK293 cells; HEK293, 72 h of compound exposure; read-out: Cytotoxicity Assay Mean EC50
Description: as §1, §2

[3] = test system: EGFR; experiment: EGFR western blot gel mobility, H3255 cells; details: lung adenocarcinoma cells, 10 μM NGI-1, 24 h
Protocol: FIGS. 3A-3F illustrate the finding that NGI-1 disrupts EGFR glycosylation and cell surface expression. FIG. 3A illustrates EGFR western blots from H3255 treated with or without 10 μM NGI-1 for 24 h. Molecular weight size shifts are compared to PNGase digestion and tunicamycin treatment alone. FIG. 3B illustrates EGFR localization in H3255 cells after 24 h 10 μM NGI-1 treatment analyzed by western blot. Plasma membrane proteins present on the surface of H3255 cells were biotinylated using a non-permeable form of biotin, sulfo-NHS—SS-biotin, and precipitated by streptavidin agarose beads. Biotin-labeled plasma membrane proteins and the fraction of non-biotinylated proteins were subjected to SDS-PAGE and analyzed by western blot against EGFR. FIG. 3C illustrates EGFR localization in H3255 cells after 24 h 10 μM NGI-1 treatment analyzed by confocal microscopy. H3255 cells were subjected to immunofluorescence for EGFR protein (red) counterstained with (CRT; green) and colocalization was determined by confocal microscopy. Nuclei were counterstained with ToPro3 (cyan). […] Bar, 10 μm. FIG. 3D illustrates quantification of colocalization using Image J Colormap Software. […] ITB1 localization after 10 μM NGI-1 for 48 h analyzed by (FIG. 3E) surface biotinylation (FIG. 3F) confocal microscopy (green). […]

[4] = Celltiter Glo viability assay, HepG2; details: human, HepG2 cells; HEPG2, 72 h of compound exposure; read-out: Cytotoxicity Assay Mean EC50
Description: as §1, §2

[5] = test system: HepG2 cells; experiment: Celltiter Glo viability assay, HepG2; details: HEPG2 EC50 over NLG AC40
Description: as §1, §2

[6] = test system: PC9 cells; experiment: Apoptosis by flow cytometry (Annexin-V, 7-AAD), PC9; details: PC9, NGI-1 10 μM for 2 or 5 days, or Tn 1 μM
Protocol: Analysis of apoptosis susceptibility in A549 and PC9 NSCLC cell lines followed treatment with NGI-1 10 μM or Tn 1 μM for 2 days was done by flow cytometry after staining the cells with Annexin-V (early apoptosis) and 7-AAD (viability dye). […] FIG. 9C: Western blot of BIP protein for A549 and PC9 cells after treatment with 10 μM NGI-1 for 6, 12 or 24 h. The expression of GAPDH was used as a loading control.

Structure (SMILES): Cc1cnc(NC(=O)c2cc(S(=O)(=O)N(C)C)ccc2N2CCCC2)s1 [NGI-1, 5-(N,N-Dimethylsulfamoyl)-N-(5-methylthiazol-2-yl)-2-(pyrrolidin-1-yl)benzamide]
- Selectivity (EC50/AC40) [1]: >172
- EC50 at 72 h [2]: > 30 µM
- EGFR N-linked glycosylation (molecular weight on SDS-PAGE) [3]: blocked EGFR N-linked glycosylation
- EC50 at 72 h [4]: > 30 µM
- Selectivity (EC50/AC40) [5]: >172
- induction of apoptosis [6]: did not induce apoptosis
